# How the values were obtained:
# [1] = molecular target: T1, Endothiapepsin (Cryphonectria parasitica) (UniProt P11838); experiment: Inhibition of Cryphonectria parasitica endothiapepsin using Abz-Thr-Ile-Nle-p-nitro-Phe-Gln-Arg-NH2 as substrate at 1 mM by fluorescence spectrophotometry analysis
# T1 sequence (whole entry): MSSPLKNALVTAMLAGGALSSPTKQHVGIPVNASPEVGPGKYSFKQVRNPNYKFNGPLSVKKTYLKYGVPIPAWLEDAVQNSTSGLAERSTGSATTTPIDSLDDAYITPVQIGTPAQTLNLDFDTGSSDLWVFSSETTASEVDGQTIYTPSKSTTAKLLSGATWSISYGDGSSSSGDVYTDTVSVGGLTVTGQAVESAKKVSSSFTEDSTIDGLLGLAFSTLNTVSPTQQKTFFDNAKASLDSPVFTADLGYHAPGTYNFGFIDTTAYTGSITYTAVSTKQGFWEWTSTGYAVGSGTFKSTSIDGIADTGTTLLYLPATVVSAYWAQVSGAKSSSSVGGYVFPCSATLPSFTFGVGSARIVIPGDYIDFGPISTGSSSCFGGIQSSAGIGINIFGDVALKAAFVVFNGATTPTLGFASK
# [2] = Solubility of the compound in aqueous buffer at pH 7.4 by UV spectrophotometry; assay type: physicochemical
Compound,inhibition [1],solubility [2]
CCN(CC)c1ccc(C(=O)NN)cc1,89%,> 1500 µM
OC(COCc1ccccc1F)CN1CCCC1 (configuration not stated),87%,> 1500 µM
N=C(N)SCc1ccccc1Cl,93%,> 1500 µM
N=C(N)c1ccc(C(F)(F)F)cc1,45%,> 1500 µM
NC1=NCc2ccccc21,89%,> 1500 µM
N=C(N)SCc1ccc(Cl)cc1,84%,> 1500 µM

# Second part, the compound after the results:
inhibition [1],solubility [2],Compound
50%,> 1500 µM,c1cc(CNc2ccc3c(c2)OCCO3)ccn1
49%,> 1500 µM,O=C(CN1CCCCC1)Nc1ccc2c(c1)OCO2
66%,> 1500 µM,CNCc1ccc(Oc2cccnc2)o1
51%,> 1500 µM,O=C(Cc1ccccc1)Nn1cnc2ccccc21
84%,> 1500 µM,O=C(Cc1cn2ccccc2n1)Nc1ccccc1

# Reference: ChEMBL document CHEMBL1921729, “A small nonrule of 3 compatible fragment library provides high hit rate of endothiapepsin crystal structures with various fragment chemotypes” (J Med Chem, 2011)
